In patent US20150250911A1, “MALODOR COUNTERACTING COMPOSITIONS” (GIVAUDAN, S.A., priority 2012, published 2015):

How the values were obtained:
[1] = Sensory tests of compounds of formula (I) against 4 malodour compounds; set-up: species or system human; key: ++++: no malodour present/strong reduction in malodour; +++: medium reduction in malodour; ++: weak malodour reduction; +: no change from control; ◯: worse than control; conditions: reference malodour sample scored +
Method: (§1) Sensory studies were performed in 120 ml Beetson jar. The test compounds were prepared in DEP (=Diethylphtalate) and pipetted onto a desized woven cotton piece of cloth placed at the bottom of a jar. Where two or more compounds were tested in the same jar, they were applied to separate areas of the cotton cloth. Prior the first assessment and between assessments, the jars were incubated at room temperature for one hour so that the headspace did reach equilibrium.
The same procedures as described in Example 5 have been followed.
The compounds of formula (I) were assessed by the trained volunteers against 4 malodour compounds, namely isovaleric acid, dimethyl disulfide, 2-methyl-3-mercaptobutan-1-ol, and 3-hydroxy-3-methyl hexanoic acid.
For the sensory test, participants were given the reference malodour sample and were told that this scored+on a scale as indicated below. They were then asked to assess and score the test jars in the specified sequence, with a 20 second gap between jars. The jars were given to the assessors blind in random permutations, with each volunteer smelling all permutations in duplicate.
The following score scale was used:
++++: no malodour present/strong reduction in malodour +++: medium reduction in malodour ++: weak malodour reduction +: no change from control ◯: worse than control

[2] = Sensory study in jars: malodour score by trained volunteers, IVA malodour; set-up: species or system human; conditions: 0-5 scale (4 = no change from control); IVA (50 ul @ 0.06%) and 200 ul ORIVOL @0.1%
Method: as §1
(§2) Sensory studies were performed following the procedure described in Example 5. For the sensory test, participants were given a reference malodour sample (comprising the same ingredients as the jars with the maldodour) and were told that this scored 4 on a 0-5 scale. They were then asked to assess and score three test jars on a 0-5 scale in the specified sequence, with a 20 second gap between jars. The jars were given to the assessors blind in random permutations, with each volunteer smelling all three permutations in duplicate.
(§3) 0: no malodour present 1: strong reduction in malodour 2 medium reduction in malodour 3: weak malodour reduction 4: no change from control 5: worse than control
(§4) Approx. 20 trained volunteers did participate in each study twice.

[3] = Sensory study in jars: malodour score by trained volunteers, HMHA malodour; set-up: species or system human; conditions: 0-5 scale (4 = no change from control); HMHA (50 ul @ 0.01%) and 200 ul ORIVOL @ 0.1%
Method: as §1, §2, §3, §4

[4] = Sensory study in jars: malodour score by trained volunteers, DMDS malodour; set-up: species or system human; conditions: for Malodour Score (arith. means): 0-5 scale (4 = no change from control)
Method: as §1
as §2, with “For” for “Sensory studies were performed following the procedure described in Example 5. For”, “the jar” for “the jars”, “the malodour)” for “the maldodour)”
as §3, §4

[5] = Sensory study in jars: malodour score by trained volunteers, MO malodour; set-up: species or system human
Method: as §1, §2, §3, §4

SMILES: CC(CO)CC1CCCC(C(C)(C)C)C1 (stereo not shown) [Compound 5.3, 3-(3-tert-butylcyclohexyl)-2-methylpropan-1-ol]
- Sensory score [1]: ++++

SMILES: CC(C)C1CCCC(C(C)C(C)CO)C1 (stereo not shown) [Compound 5.2, 3-(3-isopropylcyclohexyl)-2-methylbutan-1-ol]
- Sensory score [1]: ++++

SMILES: CC(CO)CC1CCC(C(C)C)CC1 (stereo not shown) [Compound 5.1]
- Sensory score [1]: ++++

SMILES: OC1CCC(C2CCCCC2)CC1 (stereo not shown) [Compound 5.7]
- Sensory score [1]: +++

SMILES: CCC(C)(C)C1CCC(O)CC1 (stereo not shown) [ORIVOL, 4-(tert-pentyl)cyclohexanol]
- Malodour Score (arith. means) [2]: 2.733
- Malodour Score (arith. means) [3]: 2.194
- Malodour Score (arith. means) ([4]; DMDS 50 ul @ 0.5% and 200 ul ORIVOL @0.1%): 2.862
- Malodour Score (arith. means) ([4]; DMDS (50 ul @ 0.06%) and 200 ul ORIVOL): 0.91
- Malodour Score (arith. means) ([4]; DMDS (50 ul @ 0.5%) and 200 ul ORIVOL): 1.46
- reduction on malodour perceivable by the human nose compared to the malodour taken alone ([4]; DMDS, Table 1, even at very low concentrations): significant reduction
- Malodour Score (arith. means) ([5]; 0-5 scale (4 = no change from control), MO (50 ul @ 0.005%) and 200 ul ORIVOL @ 0.1%): 2.375
- reduction on malodour perceivable by the human nose compared to the malodour taken alone ([5]; MO, IVA and HMHA, Table 2): significant reduction

SMILES: OC1CCCCCCCCCCC1 [Compound 5.5]
- Sensory score [1]: +++

SMILES: CCC(C)(C)C1CCC(O)CC1 (stereo not shown) [Compound 5.4]
- Sensory score [1]: ++++

SMILES: OC1CCCCCCCCCCCC1 [Compound 5.10]
- Sensory score [1]: ++++

SMILES: CC1(O)CCCCCCCCCCCC1 [Compound 5.11]
- Sensory score [1]: ++++

SMILES: OC1CCCCCCCCCC1 [Compound 5.9]
- Sensory score [1]: +++

SMILES: OC1CCCCCCCCCCCCCC1 [Compound 5.12]
- Sensory score [1]: ++++

SMILES: CC(C)CC1CCC(CC(C)CO)CC1 (stereo not shown) [Compound 5.6, 3-(4-isobutylcyclohexyl)-2-methylpropan-1-ol]
- Sensory score [1]: +++
